Values joined by “and” are separate entries in the source; they are usually repeats but may differ in a detail not shown here. Identical values can stand only once.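 Each compound was tested at five concentrations against cells in 96-well plates for 48 hours. GI50 = concentration required for 50% inhibition of growth. The concentration for full growth arrest is given as TGI.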 Where a SMILES comes first, the peptide text is derived from it. [ ]: non-standard residue; d: D form. The star is where a group is joined. Bn2Val = CC(C)[C@@H](C(=O)*)N(Cc1ccccc1)Cc1ccccc1; NH(3,4-diMeO-benzyl) = COc1ccc(CN*)cc1OC; NMeV = CN[C@H](C(=O)O)C(C)C; dNMeA = CN[C@H](C)C(=O)O
Legend:
Experiment in all cases: inhibition of tumour cell growth, NCI panel, 48 h
CAKI-1 renal = tested on: CAKI-1 renal
MALME-3M melanoma = tested on: MALME-3M melanoma
HOP-92 NSCLC = tested on: HOP-92 NSCLC
OVCAR-5 ovarian = tested on: OVCAR-5 ovarian
HL-60(TB) leukemia = tested on: HL-60(TB) leukemia
HT29 colon = tested on: HT29 colon
RPMI-8226 leukemia = tested on: RPMI-8226 leukemia
OVCAR-8 ovarian = tested on: OVCAR-8 ovarian
COLO 205 colon = tested on: COLO 205 colon
SW-620 colon = tested on: SW-620 colon

Structure (SMILES)	GI50 (CAKI-1 renal) [µM]	TGI (CAKI-1 renal)	GI50 (MALME-3M melanoma)	TGI (MALME-3M melanoma)	GI50 (HOP-92 NSCLC)	TGI (HOP-92 NSCLC)	GI50 (OVCAR-5 ovarian)	TGI (OVCAR-5 ovarian)	TGI (HL-60(TB) leukemia)	GI50 (HT29 colon)	TGI (HT29 colon)	TGI (RPMI-8226 leukemia)	GI50 (OVCAR-8 ovarian)	TGI (OVCAR-8 ovarian)	GI50 (COLO 205 colon)	TGI (COLO 205 colon)	TGI (SW-620 colon)	GI50 (HL-60(TB) leukemia) [µM]	GI50 (RPMI-8226 leukemia) [µM]	GI50 (SW-620 colon)
COc1ccc(CNC(=O)[C@@H](C)N(C)C(=O)[C@@H]2CCCN2C(=O)[C@H](C(C)C)N(C)C(=O)[C@@H](NC(=O)[C@H](C(C)C)N(Cc2ccccc2)Cc2ccccc2)C(C)C)cc1OC (Bn2Val-V[NMeV]P[dNMeA]-{NH(3,4-diMeO-benzyl)})	12.7	47 µM and 30.5 µM	14.8 µM	15.6 µM and 31.9 µM	10.2 µM	16.9 µM and 23.4 µM	2.79 µM	16.6 µM and 9.77 µM	11 µM and 9.45 µM	3.08 µM	12.2 µM and 10.6 µM	20 µM and 18.6 µM	16.3 µM	50 µM and > 100 µM	5.86 µM	19.8 µM and 35.9 µM	41.7 µM and 38 µM	–	–	–
CC1=CCCC(OC(N)=O)C1 (stereo not drawn)	–	> 100 µM	–	> 100 µM	–	> 100 µM	–	> 100 µM	> 100 µM	–	> 100 µM	> 100 µM	–	> 100 µM	–	> 100 µM	> 100 µM	–	–	–
C[C@@H]1Cc2c([nH]c3ccccc23)[C@@H](c2c(F)cc(/C=C/C(=O)O)cc2F)N1CC(C)(C)F	18.8	61.8 µM	15.5 µM	34.3 µM	15 µM	30.8 µM	22.2 µM	46.8 µM	39.4 µM	14.5 µM	31.3 µM	37.6 µM	11.9 µM	38.4 µM	16.5 µM	39.8 µM	29 µM	15.8	8.1	12.5 µM
CN(C)c1ccc2c(c1)oc(=O)c1ccccc12	–	26.1 µM	–	24.5 µM	–	30 µM	–	30.2 µM	20.3 µM	–	26.1 µM	28.8 µM	–	25.4 µM	–	24.7 µM	23.4 µM	–	–	–
NNC(=O)c1cnn(-c2ccnc3c(C(F)(F)F)cccc23)c1N	> 100	> 100 µM	> 100 µM	> 100 µM	82.1 µM	> 100 µM	> 100 µM	> 100 µM	> 100 µM	> 100 µM	> 100 µM	> 100 µM	> 100 µM	> 100 µM	> 100 µM	> 100 µM	> 100 µM	> 100	> 100	> 100 µM
N#Cc1cnn2ccn(C3OC(COC(=O)c4ccccc4)C(OC(=O)c4ccccc4)C3OC(=O)c3ccccc3)c12 (stereo not drawn)	–	21.5 µM	–	> 21.5 µM	–	> 31.6 µM	–	> 21.5 µM	> 21.5 µM	–	> 21.5 µM	> 21.5 µM	–	> 46.4 µM	–	> 21.5 µM	> 21.5 µM	–	–	–
COc1ccc(-n2cc(-c3ccc(OC)c(OC)c3)[nH]c2=S)cc1Cl	> 100	> 100 µM	> 100 µM	> 100 µM	37.3 µM	> 100 µM	> 100 µM	> 100 µM	> 100 µM	> 100 µM	> 100 µM	> 100 µM	–	–	> 100 µM	> 100 µM	> 100 µM	> 100	> 100	> 100 µM
CC(=O)/C=C/c1cccc(N=S)c1	–	> 100 µM	–	> 100 µM	–	> 100 µM	–	> 100 µM	34.2 µM	–	19.5 µM	> 27.8 µM	–	31 µM	–	> 48 µM	6.68 µM	–	–	–
CN(C)S(=O)(=O)Nc1ccccn1	–	> 100 µM	–	> 100 µM	–	> 100 µM	–	> 100 µM	> 100 µM	–	> 100 µM	> 100 µM	–	> 100 µM	–	> 100 µM	> 100 µM	–	–	–
N#Cc1c(O)c2c(c(O)c1C#N)C(=O)c1ccccc1C2=O	2.65	8.3 µM	0.475 µM	1.7 µM	2.2 µM	5.92 µM	3.35 µM	8.74 µM	3.64 µM	0.563 µM	3.96 µM	4.67 µM	2.33 µM	6.48 µM	1.78 µM	4.13 µM	7.55 µM	1.44	1.42	2.5 µM
O=C1NC(=O)C2C(=O)NC(=O)C1C2(c1ccccc1)c1ccc(Cl)cc1 (stereo not drawn)	–	> 100 µM	–	> 100 µM	–	> 100 µM	–	> 100 µM	> 100 µM	–	> 100 µM	> 100 µM	–	> 100 µM	–	> 100 µM	> 100 µM	–	–	–
O=[n+]1c(CBr)c(CBr)n([O-])c2ccccc21	12	24.5 µM	1.47 µM	3.15 µM	4.61 µM	17.8 µM	14 µM	27.1 µM	5.8 µM	1.91 µM	3.49 µM	8.39 µM	15.2 µM	31 µM	2.04 µM	3.99 µM	3.69 µM	2.26	2.73	1.86 µM
O=C(O)CCCc1ccc(N(CCCl)CCCl)cc1	5.86	28.1 µM and 146 µM and 247 µM	10.3 µM and 97.8 µM	26.3 µM and 188 µM and 141 µM	25.2 µM and 99.1 µM	46.6 µM and 199 µM and 175 µM	20.6 µM and 173 µM	45.4 µM and 274 µM and 374 µM	21.2 µM and 121 µM	19.9 µM and 173 µM	59.3 µM and 486 µM and 518 µM	81.1 µM and 447 µM and 335 µM	17.5 µM and 68 µM	57.8 µM and 366 µM and 159 µM	22.6 µM and 201 µM	45.9 µM and 271 µM and 333 µM	51.4 µM and 356 µM and 399 µM	0.979	13	13.8 µM and 107 µM
CN=C1NC(=O)/C(=C/c2ccc3ncccc3c2)S1	4.6	> 20.9 µM	16 µM	> 25 µM	8.03 µM	> 25 µM	9.52 µM	> 25 µM	> 25 µM	9.14 µM	> 25 µM	> 25 µM	7.73 µM	> 25 µM	7.45 µM	> 25 µM	> 25 µM	8.73	12.1	8.41 µM
N#Cc1nc(-c2ccc(F)cc2)oc1S(=O)(=O)N1CCOCC1	2.12	5.62 µM	1.7 µM	4.23 µM	2.66 µM	9.48 µM	2.8 µM	9.38 µM	4.76 µM	3.11 µM	> 100 µM	4.49 µM	4.71 µM	30.2 µM	–	–	3.24 µM	1.91	1.55	1.57 µM
